ChEMBL document CHEMBL1201862, “PubChem BioAssay data set” (2004)
Activity calls are given as the source filed them.

Legend:
cells = assay type: functional
H9c2 = experiment: cells; assay type: functional, cell-based; conditions: Rattus norvegicus, H9c2, Myocardium;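 further: confirmatory concentration-response retest of ultra-high-throughput screening hits for modulation of myocardial damage; cell death induced by hydrogen peroxide oxidative stress; compound pretreatment for 60 min then peroxide exposure for 2 h; potency is for protecting the cells against peroxide damage rather than for killing them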
[1] = NIH-3T3 fibroblast cytotoxicity, dose response, cytotoxicity control, cell-based, fluorescence, Alamar Blue, secondary assay (AID 2327); assay type: functional;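 further: NIH-3T3 mouse fibroblasts cultured with fluconazole at 8 µg/mL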
[2] = C. albicans growth with fluconazole, confirmation, fluorescence, retest (AID 2467); assay type: functional, cell-based
Large T antigen = Large T antigen (Simian virus 40, UniProt P03070); assay type: functional, Betapolyomavirus macacae;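 further: Confirmatory-stage PubChem screen for compounds that inhibit SV40 T antigen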
[3] = molecular target: T1, Rac GTPase-activating protein 1 (Homo sapiens, UniProt Q9H0H5); experiment: MgcRacGAP GTPase-activating activity inhibitors, confirmation, biochemical, ADP Hunter fluorescence, primary and confirmatory (AID 624330); assay type: functional
T1 sequence (Q9H0H5 whole entry): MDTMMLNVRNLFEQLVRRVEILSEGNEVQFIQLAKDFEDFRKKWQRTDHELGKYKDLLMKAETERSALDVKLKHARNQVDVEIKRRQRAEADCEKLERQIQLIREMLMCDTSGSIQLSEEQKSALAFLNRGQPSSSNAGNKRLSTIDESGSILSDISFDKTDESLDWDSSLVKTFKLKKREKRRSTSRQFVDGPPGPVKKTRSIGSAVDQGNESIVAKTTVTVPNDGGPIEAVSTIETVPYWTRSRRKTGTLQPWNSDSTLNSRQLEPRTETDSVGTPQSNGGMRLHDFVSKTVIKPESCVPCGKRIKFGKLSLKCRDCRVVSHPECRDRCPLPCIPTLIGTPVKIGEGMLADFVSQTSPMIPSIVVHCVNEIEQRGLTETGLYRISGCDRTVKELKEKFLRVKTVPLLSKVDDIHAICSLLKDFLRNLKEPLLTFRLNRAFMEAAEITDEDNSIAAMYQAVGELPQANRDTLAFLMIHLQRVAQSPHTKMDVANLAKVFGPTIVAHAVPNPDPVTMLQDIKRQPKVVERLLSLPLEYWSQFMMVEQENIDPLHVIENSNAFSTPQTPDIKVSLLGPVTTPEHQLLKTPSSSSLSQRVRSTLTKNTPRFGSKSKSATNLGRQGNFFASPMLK

[4] = molecular target: FAD-linked sulfhydryl oxidase ALR (Homo sapiens, UniProt P55789); experiment: inhibitors of human ALR sulfhydryl oxidase, dose response, biochemical, H2O2 detection, luminescence, cherry-pick (AID 493248)
Streptococcus = experiment: Group A Streptococcus viability loss, dose response, counter-screen for streptokinase expression inhibitor project, luminescence, BacTiterGlo (AID 1915); assay type: functional, organism-based;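 further: potency for reduction of bacterial viability or growth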
[5] = tested on: Streptococcus sp. 'group A'; experiment: growth inhibition of control SK(-) GAS strain, dose response, counter-screen for streptokinase expression inhibitor project, luminescence, kanamycin, BacTiterGlo, confirmation (AID 1900); assay type: functional, organism-based
Streptokinase A = molecular target: T2, Streptokinase A (Streptococcus pyogenes serotype M1, UniProt P10520); experiment: S. pyogenes streptokinase expression inhibitors, potency, dose response, plasminogen activation absorbance, OD405 (AID 1914); assay type: functional, Streptococcus pyogenes M1 GAS;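 further: secreted streptokinase activity via plasminogen activation per viability signal from cell pellet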
T2 sequence (P10520 whole entry): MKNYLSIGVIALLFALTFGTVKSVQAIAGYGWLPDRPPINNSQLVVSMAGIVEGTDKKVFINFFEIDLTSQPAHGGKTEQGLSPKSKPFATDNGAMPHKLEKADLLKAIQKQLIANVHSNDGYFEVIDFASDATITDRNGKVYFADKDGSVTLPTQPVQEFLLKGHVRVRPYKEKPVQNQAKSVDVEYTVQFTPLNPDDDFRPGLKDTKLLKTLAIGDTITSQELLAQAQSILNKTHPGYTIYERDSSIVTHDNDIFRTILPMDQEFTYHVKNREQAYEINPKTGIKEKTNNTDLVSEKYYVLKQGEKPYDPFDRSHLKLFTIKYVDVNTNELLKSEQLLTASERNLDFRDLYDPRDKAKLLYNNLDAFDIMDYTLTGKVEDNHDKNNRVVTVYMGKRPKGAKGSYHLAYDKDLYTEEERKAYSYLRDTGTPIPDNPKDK

[6] = growth suppression of beta-catenin-knockout colon cells, dose response, cell-based, HCT116, human colon tumor (AID 1045); assay type: functional;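 further: HCT116 colon tumor cells with beta catenin knocked out; cells exposed to compound for 60 hours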
[7] = growth suppression of PTEN-null colon cells, dose response, cell-based, HCT116 PTEN knockout (AID 1047); assay type: functional;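 further: HCT116 colon tumor cells with PTEN knocked out; cells exposed to compound for 60 hours before readout; potency for loss of cell viability measured by luminescence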
[8] = molecular target: T3, Polyadenylate-binding protein 1 (Homo sapiens, UniProt P11940); experiment: PABP1 MLLE–PAM2 binding inhibitor potency, dose response, biochemical, fluorescence polarization, FITC-PAM2 peptide (AID 602259); assay type: functional; conditions: read-out: IC50_Mean
[9] = molecular target: T4, Zinc finger protein mex-5 (Caenorhabditis elegans, UniProt Q9XUB2); experiment: MEX-5/TCR-2 RNA interaction inhibitors, dose response, biochemical, C. elegans, fluorescence polarization (AID 1960)
T4 sequence (Q9XUB2 whole entry): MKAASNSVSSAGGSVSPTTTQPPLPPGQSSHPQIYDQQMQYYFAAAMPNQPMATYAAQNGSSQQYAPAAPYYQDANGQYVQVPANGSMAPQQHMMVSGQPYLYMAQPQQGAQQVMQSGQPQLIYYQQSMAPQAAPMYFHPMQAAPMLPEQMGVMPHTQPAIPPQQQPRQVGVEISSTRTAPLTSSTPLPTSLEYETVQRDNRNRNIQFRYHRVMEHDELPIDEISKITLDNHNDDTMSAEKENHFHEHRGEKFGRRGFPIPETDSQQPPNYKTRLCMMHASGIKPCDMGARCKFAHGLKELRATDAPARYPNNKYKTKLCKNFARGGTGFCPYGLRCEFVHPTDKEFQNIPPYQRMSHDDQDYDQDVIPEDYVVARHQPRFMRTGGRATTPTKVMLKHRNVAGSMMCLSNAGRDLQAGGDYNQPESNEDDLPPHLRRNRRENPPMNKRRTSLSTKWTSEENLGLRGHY

[10] = molecular target: T5, RNA-binding protein pos-1 (Caenorhabditis elegans, UniProt G5EF15); experiment: inhibitors of POS-1/mex-3 RNA binding, dose response, biochemical, fluorescence polarization (AID 1964);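 further: purified POS-1 fused to maltose binding protein made in E. coli; potency of compounds blocking POS-1 binding to fluorescent RNA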
T5 sequence (G5EF15 whole entry): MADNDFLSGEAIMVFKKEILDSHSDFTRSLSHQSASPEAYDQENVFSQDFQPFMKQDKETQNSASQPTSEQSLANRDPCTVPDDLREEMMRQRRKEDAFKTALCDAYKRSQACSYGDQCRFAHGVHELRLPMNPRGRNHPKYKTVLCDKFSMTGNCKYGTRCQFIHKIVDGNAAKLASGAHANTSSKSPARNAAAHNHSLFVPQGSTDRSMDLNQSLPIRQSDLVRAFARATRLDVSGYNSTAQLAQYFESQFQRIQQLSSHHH

[11] = molecular target: T3, Polyadenylate-binding protein 1; experiment: PABP1 MLLE–PAM2 interaction inhibitors, dose response, miRNA deadenylation inhibitor project, biochemical, fluorescence polarization, Cy5-PAM2 peptide, secondary (AID 602260); assay type: functional; conditions: read-out: IC50_Mean
Cytochrome P450 1A2 = molecular target: T6, Cytochrome P450 1A2 (Homo sapiens, UniProt P05177);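 further: PubChem cytochrome P450 panel assay, CYP1A2 panel member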
T6 sequence (P05177 whole entry): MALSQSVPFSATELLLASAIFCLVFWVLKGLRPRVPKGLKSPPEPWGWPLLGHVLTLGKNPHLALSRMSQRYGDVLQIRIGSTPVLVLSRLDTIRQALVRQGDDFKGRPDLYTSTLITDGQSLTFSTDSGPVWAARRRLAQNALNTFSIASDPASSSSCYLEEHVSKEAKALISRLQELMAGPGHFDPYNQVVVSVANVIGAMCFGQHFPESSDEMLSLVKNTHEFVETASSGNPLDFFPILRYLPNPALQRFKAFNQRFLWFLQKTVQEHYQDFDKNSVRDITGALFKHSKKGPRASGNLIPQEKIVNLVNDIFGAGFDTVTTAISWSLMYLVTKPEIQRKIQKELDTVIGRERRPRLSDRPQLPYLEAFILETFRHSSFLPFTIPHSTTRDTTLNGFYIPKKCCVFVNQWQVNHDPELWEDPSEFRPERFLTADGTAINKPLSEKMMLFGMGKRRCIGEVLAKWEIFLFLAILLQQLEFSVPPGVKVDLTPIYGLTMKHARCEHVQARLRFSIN

[12] = molecular target: Luciferin 4-monooxygenase (Photinus pyralis, UniProt P08659); experiment: firefly luciferase enzyme inhibitors, dose response, biochemical, luminescence (AID 1891)
[13] = Luminescence Cell-Based Dose Confirmation HTS to Identify Inhibitors of Platelet Dense Granule Release. [Related pubchem assays: 1663 (Primary HTS), 1678 (Summary of Project)]; assay type: functional

Chain of Luciferin 4-monooxygenase (P08659 whole entry): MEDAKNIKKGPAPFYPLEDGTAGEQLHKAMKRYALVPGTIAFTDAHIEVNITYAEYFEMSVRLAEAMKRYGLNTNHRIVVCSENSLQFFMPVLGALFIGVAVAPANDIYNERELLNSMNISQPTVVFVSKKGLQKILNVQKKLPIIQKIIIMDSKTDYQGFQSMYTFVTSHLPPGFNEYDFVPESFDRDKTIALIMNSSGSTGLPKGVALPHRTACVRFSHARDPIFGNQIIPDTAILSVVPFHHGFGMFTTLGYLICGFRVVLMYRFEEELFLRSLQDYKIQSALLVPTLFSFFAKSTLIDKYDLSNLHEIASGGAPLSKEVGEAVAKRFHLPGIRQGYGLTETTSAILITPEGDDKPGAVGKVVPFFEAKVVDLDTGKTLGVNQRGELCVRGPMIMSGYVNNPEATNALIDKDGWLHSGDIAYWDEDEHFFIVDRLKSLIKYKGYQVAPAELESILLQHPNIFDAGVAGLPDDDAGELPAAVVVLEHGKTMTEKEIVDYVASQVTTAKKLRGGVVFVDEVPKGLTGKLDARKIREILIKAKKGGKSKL
Chain of FAD-linked sulfhydryl oxidase ALR (P55789 whole entry): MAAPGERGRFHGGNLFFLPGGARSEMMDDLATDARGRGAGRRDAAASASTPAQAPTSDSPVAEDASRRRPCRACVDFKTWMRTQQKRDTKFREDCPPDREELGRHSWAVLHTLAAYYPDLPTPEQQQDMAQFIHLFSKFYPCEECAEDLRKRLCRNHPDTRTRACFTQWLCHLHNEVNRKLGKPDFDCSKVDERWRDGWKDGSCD
Chain of Large T antigen (P03070 whole entry): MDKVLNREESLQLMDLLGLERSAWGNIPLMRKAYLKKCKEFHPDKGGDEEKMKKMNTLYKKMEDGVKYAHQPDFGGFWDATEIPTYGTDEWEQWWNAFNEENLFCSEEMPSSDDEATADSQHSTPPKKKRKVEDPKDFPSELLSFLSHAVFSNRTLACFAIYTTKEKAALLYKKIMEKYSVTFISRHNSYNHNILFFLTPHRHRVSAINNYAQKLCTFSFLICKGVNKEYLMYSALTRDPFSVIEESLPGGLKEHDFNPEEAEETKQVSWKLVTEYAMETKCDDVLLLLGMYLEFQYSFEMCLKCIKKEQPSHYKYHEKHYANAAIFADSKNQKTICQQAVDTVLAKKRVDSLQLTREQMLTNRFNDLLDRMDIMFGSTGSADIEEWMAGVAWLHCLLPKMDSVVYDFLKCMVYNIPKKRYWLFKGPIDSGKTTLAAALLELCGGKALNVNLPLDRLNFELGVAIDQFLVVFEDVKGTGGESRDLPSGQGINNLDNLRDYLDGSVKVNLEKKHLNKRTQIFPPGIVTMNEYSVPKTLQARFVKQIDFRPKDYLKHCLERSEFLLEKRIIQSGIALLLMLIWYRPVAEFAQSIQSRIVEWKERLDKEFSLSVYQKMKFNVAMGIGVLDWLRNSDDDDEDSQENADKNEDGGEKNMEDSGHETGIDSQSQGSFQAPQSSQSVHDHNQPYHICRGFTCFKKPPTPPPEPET
T3 sequence (P11940 whole entry): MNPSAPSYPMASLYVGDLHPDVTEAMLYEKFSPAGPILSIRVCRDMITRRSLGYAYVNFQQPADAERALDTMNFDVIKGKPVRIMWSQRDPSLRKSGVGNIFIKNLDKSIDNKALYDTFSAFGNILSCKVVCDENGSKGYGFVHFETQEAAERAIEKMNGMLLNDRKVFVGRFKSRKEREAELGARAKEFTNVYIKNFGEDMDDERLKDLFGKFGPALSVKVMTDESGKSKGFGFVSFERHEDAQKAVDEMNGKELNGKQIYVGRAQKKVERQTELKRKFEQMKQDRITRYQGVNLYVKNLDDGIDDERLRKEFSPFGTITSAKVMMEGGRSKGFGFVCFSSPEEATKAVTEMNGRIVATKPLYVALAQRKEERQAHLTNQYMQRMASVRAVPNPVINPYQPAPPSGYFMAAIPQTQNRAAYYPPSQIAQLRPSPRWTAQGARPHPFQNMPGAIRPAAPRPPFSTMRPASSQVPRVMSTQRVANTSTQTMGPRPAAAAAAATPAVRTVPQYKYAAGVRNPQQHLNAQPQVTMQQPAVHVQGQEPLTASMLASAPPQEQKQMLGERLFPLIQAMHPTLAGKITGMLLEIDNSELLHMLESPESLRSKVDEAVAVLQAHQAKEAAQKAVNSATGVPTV

COc1ccc(NC(=O)c2ccc(-c3ccc([N+](=O)[O-])cc3)o2)cc1OC
IC50 (cells): > 50 µM (active)

O=C(COc1ccccc1Cl)NNC(=O)Cn1[nH]c(=O)c2ccccc2c1=O
IC50 (H9c2): > 79 µM (inactive)

Cc1ccc(SCC(=O)Nc2ccc3c(c2)C(=O)N(C)C3=O)cc1
EC50 [1]: > 150 µM (inactive) | EC50 [2]: > 38 µM (not active)

CC(CCc1ccccc1)NC(=O)CN1CCN(c2ccc(O)cc2)CC1 (centres undefined)
EC50 [1]: 36.2 µM (active)

Cc1cc(OCC(=O)Nc2ccncc2)ccc1Br
IC50 (cells): > 50 µM (active)

COc1cc(/C=N/NC(=O)c2cccc([N+](=O)[O-])c2)ccc1O
IC50 (Large T antigen): 5.73 µM (active) | IC50 [3]: 29 µM (active)

COC(=O)Cc1cc(=O)n(-c2nc3ccccc3s2)[nH]1
EC50 [1]: > 150 µM (inactive) | EC50 [2]: 21.7 µM (active)

CN(C)c1ccc(N2CC(C)(C)C2=O)cc1
IC50 (Large T antigen): 4.39 µM (active)

CCn1c(SCC(=O)N2CCN(c3ccccc3)CC2)nc2c(c1=O)SC(C)C2 (centres undefined)
IC50 (H9c2): 11.9 µM (active)

Cc1ccc(-c2nnc(O)c3ccccc23)cc1S(=O)(=O)NC(C)(C)C
IC50 (H9c2): > 79 µM (inactive)

COC(=O)CC1SC(=O)NC1=Nc1ccc(O)cc1 (centres undefined)
IC50 (Large T antigen): 16.8 µM (active) | IC50 [3]: 52.9 µM (active)

O=C1CSC(c2ccccc2[N+](=O)[O-])N1c1cccc(F)c1 (centres undefined)
AC50 [4]: 0.689 µM (active)

Cc1ccc(OCCCCc2c(C)n[nH]c2C)cc1
EC50 (Streptococcus): > 150 µM (not active) | EC50 [5]: 16.3 µM (active) | EC50 (Streptokinase A): > 150 µM (not active) | IC50 (cells): 25.6 µM (active)

O=C(NCc1ccccn1)C(=O)NCC(c1ccco1)N1CCN(c2ccc(F)cc2)CC1 (centres undefined)
AC50 [4]: 13.2 µM (active)

O=C(c1ccco1)N1CCN(C(=S)Nc2ccc(F)c(Cl)c2)CC1
IC50 (Large T antigen): > 100 µM (active)

Cc1ccc(C)c(NC(=O)C(Sc2ncnc3ccccc23)c2ccccc2)c1 (centres undefined)
IC50 (H9c2): 29.1 µM (active) | EC50 [6]: 126 µM (active) | EC50 [7]: 111 µM (active)

CC(=O)c1ccc(N2CCN(C(=O)c3cc(-c4cccnc4)nc4ccc(Br)cc34)CC2)cc1
IC50 (H9c2): > 79 µM (inactive)

C/C(=N\NC(=O)CCC(=O)Nc1ccc(C)c(C)c1)C1CC1
EC50 [1]: > 150 µM (inactive) | EC50 [2]: > 38 µM (not active)

O=C(NC(Cc1ccccc1)C(=O)NCc1ccccn1)c1ccco1 (centres undefined)
EC50 [1]: > 150 µM (inactive) | EC50 [2]: > 38 µM (not active)

CCCNC(=O)NC(=O)COc1ccc(-c2ccc(C#N)cc2)cc1
IC50 (cells): 1.12 µM (active)

O=C(CCn1c(=O)oc2cc(Cl)ccc21)Nc1ccc(O)cc1
IC50 (Large T antigen): 25.2 µM (active)

N#CC1=C(N)C2=C(N3CCCCC3)CCCC2C1(C#N)C#N (centres undefined)
IC50 [8]: > 66 µM (inactive) | EC50 [9]: 77.1 µM (active) | EC50 [10]: 89.4 µM (active) | IC50 (Large T antigen): 9.99 µM (active) | IC50 [11]: > 66 µM (inactive)

COc1ccc(Cl)cc1NC(=O)CN(C)C(=O)CCc1nc(O)c2ccccc2n1
IC50 (H9c2): > 79 µM (inactive)

Cc1ccc(NC(=O)c2cc(-c3cccs3)nc3ccccc23)nc1
IC50 (H9c2): > 79 µM (inactive)

O=C(NCc1ccco1)c1ccccc1NS(=O)(=O)c1ccc(Br)s1
AC50 (Cytochrome P450 1A2): 14.1 µM (inconclusive) | EC50 [1]: > 160 µM (inactive) | EC50 [2]: 2.35 µM (active)

Cc1ccc(NC(=O)CO/N=C/c2ccccc2C)c(C)c1
IC50 (cells): 50 µM (active)

CC(=O)Oc1ccc(-c2cccc(C(=O)N(C)c3ccc(O)cc3)c2)cc1
AC50 [4]: 22.9 µM (active)

COc1ccc2cc(CCl)c(Cl)nc2c1
AC50 [4]: 5.78 µM (active)

CCC(C)SCc1nc2ccccc2[nH]1 (centres undefined)
EC50 [12]: > 112 µM (not active) | EC50 [13]: > 112 µM (not active)

CC(C)(C)NC(=O)COC(=O)c1c2c(nc3ccccc13)CCC2
IC50 (H9c2): 6.79 µM (active)

Nc1ccc(Nc2nc3ccccc3[nH]2)cc1
IC50 (Large T antigen): 7.8 µM (active)

Cc1ccccc1C(C(=O)NCc1ccccc1)N(Cc1ccco1)C(=O)c1ccccn1 (centres undefined)
IC50 (H9c2): > 79 µM (inactive)

Cc1ccc(-c2csc(N)n2)s1
AC50 [4]: 0.732 µM (active)

COc1cccc(OCC(=O)NNC(=O)C(=O)Nc2cccc(C)c2)c1
IC50 (cells): 20.4 µM (active)

COc1ccc(N/C=C/C(=O)c2ccccc2)cc1
EC50 [12]: 0.863 µM (active) | EC50 [13]: < 0.701 µM (active)

Cc1cc(C)c2c(c1)cc(C)c1nnc(SCC(=O)Nc3ccccc3N3CCOCC3)n12
EC50 [12]: > 112 µM (not active) | EC50 [13]: > 112 µM (not active)

C/C(CC(=O)Nc1ccc(N(C)C)cc1)=N\NC(=O)c1ccc(Cl)cc1Cl
IC50 (Large T antigen): 9.26 µM (active)

COc1cc(/C(C)=N/NC(=O)CSc2nc3ccccc3[nH]2)ccc1O
IC50 (Large T antigen): 22.9 µM (active)

O=C(c1ccc(S(=O)(=O)N2CCOCC2)cc1)N1CCN(c2ccc(F)cc2)CC1
EC50 [12]: > 112 µM (not active) | EC50 [13]: 93.8 µM (active)

COc1ccc(CCN2CC(C(=O)NCCc3ccccc3C(F)(F)F)CCC2=O)cc1 (centres undefined)
EC50 [12]: > 112 µM (not active) | EC50 [13]: > 112 µM (not active)

CN1C2CCC1CC(NC(=O)CSc1ccc(Cl)cc1)C2 (centres undefined)
EC50 [12]: > 112 µM (not active) | EC50 [13]: > 112 µM (not active)
